Assay results reported in patent US9718819B2 (Merck Sharp & Dohme Corp., priority 2012, dated 2017).
pIC50: −log10 of the molar value.

Columns and labels:
[1] = target: HIV-1 RT wild-type enzyme (Human immunodeficiency virus type 1 group M subtype B (isolate HXB2) (HIV-1), UniProt P04585); test: HIV-1 reverse transcriptase inhibitory activity (RT polymerase assay); type: biochemical; conditions: HIV-1 RT wild-type enzyme 83 pM; RNA-dependent DNA polymerase activity; read-out: IC50
Summary of the method: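 Biotinylated DNA primer annealed to HCV-derived RNA template (16.6 nM final hybrid), with 2 μM dATP/dGTP/dCTP and 66.6 nM Ru-dUTP, after 30 min compound–enzyme preincubation at room temperature; polymerization 90 min at 37 °C, EDTA quench. Product captured on avidin plates, electrochemiluminescence read; IC50 by four-parameter logistic fit versus DMSO and 1 μM efavirenz controls.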

[2] = Determination of PK parameters in dog after intravenous bolus; type: in vivo, Male beagle dogs; conditions: male beagle dog, plasma, 50% DMSO in PEG400, read-out: Dog t1/2 (terminal half-life) (converted)
Experimental: Determination of PK Parameters Male beagle dogs (weight 9-13 kg) were fasted overnight and housed individually. Water was provided ad lib throughout the study. Food was allowed approximately 4 hr post dose. […] The formulations were given intravenous as a bolus injection into the cephalic vein. The vein used for the dosing will not be used for the blood sample collection for the first 4 hr post-dose). […] EDTA was used as anticoagulant and approximately 0.5 mL aliquots of blood samples were collected at each time point. […] Test compound concentration in dog plasma was determined using a LC/MS/MS method. Typically the LC/MS/MS system consisted of an ACQUITY UPLC system with autosampler system refrigerated at 4° C. during analysis, and an API 4000 mass spectrometer. […] The mobile phase consisting of a solvent A (0.1% formic acid in water/acetonitrile (95/5)) and solvent B (0.1% formic acid in acetonitrile/water (95/5)) was delivered at a flow rate of 600 μL/min. […] Mass spectrometric detection of the analytes is accomplished using either an ESI or APCI interface operated in the positive or negative ionization mode. Analyte response is measured by multiple reaction monitoring (MRM) of transitions unique to each compound […]

Compound | pIC50 [1] | half-life [2] [h]
N#Cc1cc(Cl)cc(Oc2c(C(F)(F)F)ncn(Cc3cc(C4CC4)n[nH]c3=O)c2=O)c1 [Example 117, 3-chloro-5-((1-((6-cyclopropyl-3-oxo-2,3-dihydropyridazin-4-yl)methyl)-6-oxo-4-(trifluoromethyl)-1,6-dihydropyrimidin-5-yl)oxy)benzonitrile] | 8.22 | 30
N#Cc1cc(Cl)cc(Oc2c(C(F)(F)F)ncn(Cc3cnc(-c4ccccc4F)[nH]c3=O)c2=O)c1 [Example 147, 3-chloro-5-((1-((2-(2-fluorophenyl)-6-oxo-1,6-dihydropyrimidin-5-yl)methyl)-6-oxo-4-(trifluoromethyl)-1,6-dihydropyrimidin-5-yl)oxy)benzonitrile] | 7.77 | 
N#Cc1cc(Cl)cc(Oc2c(C(F)(F)F)ncn(Cc3cnc(OCC(F)(F)F)[nH]c3=O)c2=O)c1 [Example 139, 3-Chloro-5-{6-oxo-1-[6-oxo-2-(2,2,2-trifluoro-ethoxy)-1,6-dihydro-pyrimidin-5-ylmethyl]-4-trifluoromethyl-1,6-dihydro-pyrimidin-5-yloxy}-benzonitrile] | 7.35 | 
N#Cc1cc(Cl)cc(Oc2c(C(F)(F)F)ncn(Cc3cc(-c4ccc(OC(F)F)cc4)c(=O)[nH]n3)c2=O)c1 [Example 30, 3-chloro-5-((1-((5-(4-(difluoromethoxy)phenyl)-6-oxo-1,6-dihydropyridazin-3-yl)methyl)-6-oxo-4-(trifluoromethyl)-1,6-dihydropyrimidin-5-yl)oxy)benzonitrile] | 8.40 | 
N#Cc1cc(F)cc(Oc2c(C(F)(F)F)ncn(Cc3ccc(=O)[nH]n3)c2=O)c1 [Example 19, 3-fluoro-5-((6-oxo-1-((6-oxo-1,6-dihydropyridazin-3-yl)methyl)-4-(trifluoromethyl)-1,6-dihydropyrimidin-5-yl)oxy)benzonitrile] | 7.51 | 
N#Cc1cc(Cl)cc(Oc2c(C(F)(F)F)ncn(Cc3cc(C4CC(F)(F)C4)c(=O)[nH]n3)c2=O)c1 [Example 9, 3-chloro-5-((1-((5-(3,3-difluorocyclobutyl)-6-oxo-1,6-dihydropyridazin-3-yl)methyl)-6-oxo-4-(trifluoromethyl)-1,6-dihydropyrimidin-5-yl)oxy)benzonitrile] | 6.96 | 
N#Cc1cc(Cl)cc(Oc2c(C(F)(F)F)ncn(Cc3cnc(-c4ccc(Cl)nc4)[nH]c3=O)c2=O)c1 [Example 152, 3-chloro-5-((1-((2-(6-chloropyridin-3-yl)-6-oxo-1,6-dihydropyrimidin-5-yl)methyl)-6-oxo-4-(trifluoromethyl)-1,6-dihydropyrimidin-5-yl)oxy)benzonitrile] | 7.49 | 
COc1cncc(-c2cc(Cn3cnc(C(F)(F)F)c(Oc4cc(Cl)cc(C#N)c4)c3=O)n[nH]c2=O)c1 [Example 85, 3-chloro-5-((1-((5-(5-methoxypyridin-3-yl)-6-oxo-1,6-dihydropyridazin-3-yl)methyl)-6-oxo-4-(trifluoromethyl)-1,6-dihydropyrimidin-5-yl)oxy)benzonitrile] | 7.85 | 
[2H]C([2H])(c1ccc(=O)[nH]n1)n1cnc(C(F)(F)F)c(Oc2cc(Cl)cc(C#N)c2)c1=O [Example 8] | 8.05 | 
N#Cc1cc(Cl)cc(Oc2c(C(F)(F)F)ncn(Cc3cc(-c4cccnc4F)c(=O)[nH]n3)c2=O)c1 [Example 87, 3-chloro-5-((1-((5-(2-fluoropyridin-3-yl)-6-oxo-1,6-dihydropyridazin-3-yl)methyl)-6-oxo-4-(trifluoromethyl)-1,6-dihydropyrimidin-5-yl)oxy)benzonitrile] | 7.74 | 
N#Cc1cc(Cl)cc(Oc2c(C(F)(F)F)ncn(Cc3cnc(-c4ccccc4)[nH]c3=O)c2=O)c1 [Example 149, 3-chloro-5-((6-oxo-1-((6-oxo-2-phenyl-1,6-dihydropyrimidin-5-yl)methyl)-4-(trifluoromethyl)-1,6-dihydropyrimidin-5-yl)oxy)benzonitrile] | 7.85 | 
N#Cc1cc(Cl)cc(Oc2c(C(F)(F)F)ncn(Cc3cc(-c4ccc(OC(F)F)cc4)n[nH]c3=O)c2=O)c1 [Example 115, 3-chloro-5-((1-((6-(4-(difluoromethoxy)phenyl)-3-oxo-2,3-dihydropyridazin-4-yl)methyl)-6-oxo-4-(trifluoromethyl)-1,6-dihydropyrimidin-5-yl)oxy)benzonitrile] | 8.15 | 
N#Cc1cc(Cl)cc(Oc2c(C(F)(F)F)ncn(Cc3cc(-c4cccc(F)c4F)n[nH]c3=O)c2=O)c1 [Example 120, 3-chloro-5-((1-((6-(2,3-difluorophenyl)-3-oxo-2,3-dihydropyridazin-4-yl)methyl)-6-oxo-4-(trifluoromethyl)-1,6-dihydropyrimidin-5-yl)oxy)benzonitrile] | 8.52 | 
CCc1ncc(Cn2cnc(C(F)(F)F)c(Oc3cc(Cl)cc(C#N)c3)c2=O)c(=O)[nH]1 [Example 144, 3-chloro-5-((1-((2-ethyl-6-oxo-1,6-dihydropyrimidin-5-yl)methyl)-6-oxo-4-(trifluoromethyl)-1,6-dihydropyrimidin-5-yl)oxy)benzonitrile] | 8.05 | 
CC(F)(F)c1cc(Cn2cnc(C(F)(F)F)c(Oc3cccc(C#N)c3F)c2=O)c(=O)[nH]n1 [Example 178, 3-((1-((6-(1,1-difluoroethyl)-3-oxo-2,3-dihydropyridazin-4-yl)methyl)-6-oxo-4-(trifluoromethyl)-1,6-dihydropyrimidin-5-yl)oxy)-2-fluorobenzonitrile] | 8.05 | 
N#Cc1cc(Cl)cc(Oc2c(C(F)(F)F)ncn(Cc3cc(Oc4ccc(F)cc4)c(=O)[nH]n3)c2=O)c1 [Example 108, 3-chloro-5-((1-((5-(4-fluorophenoxy)-6-oxo-1,6-dihydropyridazin-3-yl)methyl)-6-oxo-4-(trifluoromethyl)-1,6-dihydropyrimidin-5-yl)oxy)benzonitrile] | 6.50 | 
Cc1cccc(-c2cc(Cn3cnc(C(F)(F)F)c(Oc4cc(Cl)cc(C#N)c4)c3=O)n[nH]c2=O)c1F [Example 38, 3-chloro-5-((1-((5-(2-fluoro-3-methylphenyl)-6-oxo-1,6-dihydropyridazin-3-yl)methyl)-6-oxo-4-(trifluoromethyl)-1,6-dihydropyrimidin-5-yl)oxy)benzonitrile] | 6.96 | 
N#Cc1cc(Cl)cc(Oc2c(C(F)(F)F)ncn(Cc3cnc(C(N)=O)[nH]c3=O)c2=O)c1 [Example 154, 5-((5-(3-chloro-5-cyanophenoxy)-6-oxo-4-(trifluoromethyl)pyrimidin-1(6H)-yl)methyl)-6-oxo-1,6-dihydropyrimidine-2-carboxamide] | 7.38 | 
N#Cc1cc(Cl)cc(Oc2c(C(F)(F)F)ncn(Cc3cnc(-c4ccc(Cl)cc4)[nH]c3=O)c2=O)c1 [Example 151, 3-chloro-5-((1-((2-(4-chlorophenyl)-6-oxo-1,6-dihydropyrimidin-5-yl)methyl)-6-oxo-4-(trifluoromethyl)-1,6-dihydropyrimidin-5-yl)oxy)benzonitrile] | 7.55 | 
N#Cc1cc(Cl)cc(Oc2c(C(F)(F)F)ncn(Cc3cc(C(N)=O)c(=O)[nH]n3)c2=O)c1 [Example 101, 6-((5-(3-chloro-5-cyanophenoxy)-6-oxo-4-(trifluoromethyl)pyrimidin-1(6H)-yl)methyl)-3-oxo-2,3-dihydropyridazine-4-carboxamide] | 6.82 | 
CNc1ncc(Cn2cnc(C(F)(F)F)c(Oc3cc(Cl)cc(C#N)c3)c2=O)c(OC)n1 [Example 138, 3-chloro-5-((1-((4-methoxy-2-(methylamino)pyrimidin-5-yl)methyl)-6-oxo-4-(trifluoromethyl)-1,6-dihydropyrimidin-5-yl)oxy)benzonitrile] | 7.96 | 
N#Cc1cc(Cl)cc(Oc2c(C(F)(F)F)ncn(Cc3cc(-c4cccc(F)c4Cl)c(=O)[nH]n3)c2=O)c1 [Example 41, 3-chloro-5-((1-((5-(2-chloro-3-fluorophenyl)-6-oxo-1,6-dihydropyridazin-3-yl)methyl)-6-oxo-4-(trifluoromethyl)-1,6-dihydropyrimidin-5-yl)oxy)benzonitrile] | 7.23 | 
CN(C)c1ncc(Cn2cnc(C(F)(F)F)c(Oc3cc(Cl)cc(C#N)c3)c2=O)c(=O)[nH]1 [Example 141, 3-Chloro-5-[1-(2-dimethylamino-6-oxo-1,6-dihydro-pyrimidin-5-ylmethyl)-6-oxo-4-trifluoromethyl-1,6-dihydro-pyrimidin-5-yloxy]-benzonitrile] | 7.89 | 
N#Cc1cc(Cl)cc(Oc2c(C(F)(F)F)ncn(Cc3cc(C(O)C4CC4)c(=O)[nH]n3)c2=O)c1 (centres unmarked) [Example 17, 3-chloro-5-((1-((5-(cyclopropyl(hydroxy)methyl)-6-oxo-1,6-dihydropyridazin-3-yl)methyl)-6-oxo-4-(trifluoromethyl)-1,6-dihydropyrimidin-5-yl)oxy)benzonitrile] | 6.75 | 
Cc1cc(F)ccc1-c1cc(Cn2cnc(C(F)(F)F)c(Oc3cc(Cl)cc(C#N)c3)c2=O)n[nH]c1=O [Example 56, 3-chloro-5-((1-((5-(4-fluoro-2-methylphenyl)-6-oxo-1,6-dihydropyridazin-3-yl)methyl)-6-oxo-4-(trifluoromethyl)-1,6-dihydropyrimidin-5-yl)oxy)benzonitrile] | 7.12 | 
